Assay results reported in the NIST ThermoML archive (doi:10.1021/je034218n).

Conditions: Liquid, vibrating tube

COCCOCCO [2-(2-methoxyethoxy)ethanol]
mass density [kg/m3]
Conditions	100 kPa	1000 kPa	2500 kPa	5000 kPa	7500 kPa	10000 kPa	15000 kPa	20000 kPa	25000 kPa
283.15 K	1028.5	1029	1029.8	1031.2	1032.5	1033.9	1036.4	1039	1041.4
293.15 K	1019.5	1020	1020.9	1022.3	1023.7	1025.2	1027.9	1030.5	1033.1
303.15 K	1010.8	1011.3	1012.2	1013.6	1015	1016.4	1019.3	1022.1	1024.8
313.15 K	1002	1002.6	1003.5	1005.1	1006.7	1008.2	1011.2	1014.1	1016.9
323.15 K	993.2	993.9	994.9	996.6	998.3	1000	1003.2	1006.2	1009.2
333.15 K	983.9	984.6	985.6	987.4	989.1	990.8	994.1	997.2	1000.2
343.15 K	975.2	975.8	977	978.8	980.6	982.4	985.9	989.2	992.4
353.15 K	965.7	966.4	967.6	969.5	971.4	973.3	976.9	980.4	983.7

CCOCCOCCO [3,6-dioxa-1-octanol]
mass density [kg/m3]
Conditions	100 kPa	1000 kPa	2500 kPa	5000 kPa	7500 kPa	10000 kPa	15000 kPa	20000 kPa	25000 kPa
283.15 K	997.7	998.2	999.1	1000.6	1002	1003.4	1006.1	1008.8	1011.3
293.15 K	988.4	988.9	989.8	991.3	992.8	994.3	997.2	999.9	1002.6
303.15 K	979.5	980.1	981.1	982.6	984.2	985.8	988.8	991.7	994.6
313.15 K	970.6	971.2	972.2	973.9	975.5	977.1	980.3	983.4	986.3
323.15 K	961.5	962.1	963.2	965	966.8	968.5	971.9	975.1	978.2
333.15 K	952.4	953.1	954.3	956.1	958	959.7	963.2	966.5	969.8
343.15 K	943.4	944.1	945.3	947.3	949.2	951.1	954.8	958.3	961.6
353.15 K	934.1	934.9	936.1	938.2	940.2	942.2	946	949.7	953.2
